Measured values: US20140378424A1, “ESTROGEN RECEPTOR MODULATORS FOR REDUCING BODY WEIGHT” (RosScreening, Inc., priority 2011, published 2014)

Columns and labels:
[1] = Example 4: 8 week weight loss experiment in obese mice, compounds via drinking water; type: in vivo, Male C57BL6/J mice; conditions: obese mice on high-fat diet, 8 weeks, most compounds 0.5 and 2.5 mg/kg/day, hexestrol 0.125 to 2 mg/kg/day
Method: An 8 week experiment was performed to investigate the ability of various estrogen modulating compounds to induce weight loss in obese mice. Male C57BL6/J mice were placed on a high fat diet for approximately 12 weeks prior to the study and initiated in the experiment at 18 weeks of age. Obese mice were allocated into cohorts of 6 mice per compound and housed at a density of 3 per cage. Over 8 weeks, mice were placed on a high-fat diet ad libitum and compounds were provided via drinking water. Most compounds were assigned to two treatment groups with doses of 0.5 mg/kg/day and 2.5 mg/kg/day. Hexestrol was assigned to 5 treatment groups ranging between 0.125 mg/kg/day and 2 mg/kg/day. Weight measurements of each mouse were taken once per week over 8 weeks.

[2] = Example 3: 8 week weight loss experiment in obese mice, compound in drinking water or feed; type: in vivo, male C57BL6/J mice; conditions: for body weight in comparison to controls / body weight reduction from controls: 8 weeks; for fat tissue mass (NMR body composition analysis): after 8 weeks
Method: (§1) An 8 week long weight loss experiment was performed on obese 18 week old male C57BL6/J mice having been on a high fat diet for approximately 12 weeks. The estrogen modulating compound treatment groups (hexestrol, clomiphene, raloxifene, and tamoxifen) were either provided in drinking water or feed. Obese mice were allocated into cohorts of 6 mice per compound per treatment type and housed at a density of 1 mouse per cage. Water treatment group mice were placed on a high fat diet ad libitum with compound provided via drinking water. Each feed treatment group received a specially formulated high fat diet containing their corresponding compound ad libitum and normal drinking water. Weight measurements of each mouse were taken twice per week over 8 weeks. Food intake per mouse per day was also recorded.
(§2) At the end of 8 weeks mice underwent a body tissue composition analysis by Echo MRI (NMR), an intraperitoneal glucose tolerance test (IPGTT), and an oral glucose tolerance test (OGTT). For IPGTT, each mouse received an intraperitoneal glucose solution injection of 1 g glucose/kg body weight. Serum glucose concentration was measured pre-injection, and 30, 60, and 90 minutes post-injection. For OGTT, each mouse received an oral glucose solution dose of 1 g glucose/kg body weight. Serum glucose was measured before the oral dose, and 15, 30, 90, and 120 minutes after oral dose.

[3] = Example 1 Phase 1: prevention of weight gain in lean mice placed on high fat diet, drug via drinking water for 8 weeks; type: in vivo, Male C57BL6/J mice; conditions: for lean mouse body weight accumulation over the 8 week period: drug in drinking water, vs control mice
Method: (§3) Male C57BL6/J mice were tested as follows. The animal room was lighted entirely with artificial fluorescent lighting on controlled 12 hr light/dark cycle (6 a.m. to 6 p.m. light). The normal temperature and relative humidity ranges in the animal rooms were maintained at 22±4° C. and 50±15%, respectively. The animal room was set for 15 air exchanges per hour. Filtered tap water acidified to a pH of 2.5 to 3.0 was provided ad libitum. High fat diet was provided ad libitum.
After a 1 week acclimation, the mice were grouped into cohorts of 6 mice each. 6 DIO (diet induced obesity) and 6 lean C57BL6/J mice were used as naïve controls. Each drug was administered via drinking water for 8 weeks. The drug containing drinking water solutions were made fresh weekly. Water intake, food intake, and body weights were recorded weekly.
This experiment was run in two phases, Phase 1 (prevention of weight gain in lean mice) and Phase 2 (weight loss in obese mice). In the phase 1 experiment, the mice were placed on high fat diet at the same time administration of the drug was initiated. In the phase 2 experiment, drug treatment was initiated on 18 week old mice, which were previously on a high fat diet for approximately 12 weeks. In addition to the measurements noted above, a single DEXA Scan analysis was ran on the mice in Phase 2. After treatment, mice underwent body tissue composition analysis by Echo MRI (NMR) to measure their fat and lean mass content.
(§4) Body weight change was calculated for each mouse by subtracting the body weight on the first day of dosing (baseline) from the body weight on the last day of dosing (final) and calculating the percent change from baseline body weight: [=100*(Final Weight−BaselineWeight)/BaselineWeight]. Average percent body weight change was then calculated for each treatment group. Error bars represent standard error of the mean (SEM).
Food intake per mouse per day was calculated based on food intake per cage. Mean food intake for each treatment group was then calculated weighted by the number of mice per cage. Similarly, water intake per mouse per day was calculated based on water intake per cage. Mean water intake for each treatment group was then calculated weighted by the number of mice per cage.
In both phase 1 and 2 studies, the drugs were administered through the water given to the mice. The concentration of each drug in the water is provided below:
Diethylstilbestrol: 2 mg/500 mL (1 mg/kg/day)
Raloxifene: 20 mg/500 mL (10 mg/kg/day)
Tamoxifen: 4 mg/500 mL (2 mg/kg/day)
Clomiphene: 10 mg/500 mL (5 mg/kg/day)
Hexestrol: 4 mg/500 mL (2 mg/kg/day)
A mouse typically drinks about 5 mL of water a day.
Phase 1 (Prevention of Weight Gain in Lean Mice)

[4] = Example 3: oral glucose tolerance test (OGTT) in obese mice after 8 weeks of treatment; type: in vivo, male C57BL6/J mice; conditions: hexestrol water treated mice, 1 mg/kg/day, 1 g glucose/kg oral
Method: as §1, §2

[5] = Example 3: intraperitoneal glucose tolerance test (IPGTT) in obese mice after 8 weeks of treatment; type: in vivo, male C57BL6/J mice; conditions: hexestrol water treated mice, 1 mg/kg/day
Method: as §1, §2

[6] = Example 1 Phase 2: weight loss in obese mice, drug via drinking water for 8 weeks; type: in vivo, Male C57BL6/J mice
Method: as §3
After a 1 week acclimation, the mice were grouped into cohorts of 6 mice each. 6 DIO (diet induced obesity) and 6 lean C57BL6/J mice were used as naïve controls. Each drug was administered via drinking water for 8 weeks. […] Water intake, food intake, and body weights were recorded weekly. […]
as §4, with “Error bars represent standard error of the mean (SEM).” left out
Food intake per mouse per day was calculated based on food intake per cage. Mean food intake for each treatment group was then calculated weighted by the number of mice per cage. Similarly, water intake per mouse per day was calculated based on water intake per cage. […]

Row | Structure (SMILES) | body weight in comparison to the control group [1] | body weight in comparison to controls ([2]; feed treatment group) | body weight in comparison to controls ([2]; water treatment group) | lean mouse body weight accumulation over the 8 week period [3] | fat tissue mass (NMR body composition analysis) ([2]; feed treated mice) | other results
1 | CN(C)CCOc1ccc(/C(=C(/CCCl)c2ccccc2)c2ccccc2)cc1 [toremifene] | significant reduction | – | – | – | – | –
2 | O=C(c1ccc(OCCN2CCCCC2)cc1)c1c(-c2ccc(O)cc2)sc2cc(O)ccc12 [raloxifene] | – | significant reduction | significant reduction | significant decrease | – | –
3 | C[C@]12CC[C@@H]3c4ccc(O)cc4CC[C@H]3[C@@H]1CC[C@@H]2O [17β-estradiol] | significant reduction | – | – | – | – | –
4 | CC/C(=C(\c1ccccc1)c1ccc(OCCN(C)C)cc1)c1ccccc1 [tamoxifen] | – | significant reduction | significant reduction | significant decrease | significant decrease | fat tissue mass (NMR body composition analysis) ([2]; water treated mice): significant decrease
5 | C/C=C(/C(=C/C)c1ccc(O)cc1)c1ccc(O)cc1 [Dienestrol, dienestrol] | significant reduction | – | – | – | – | –
6 | CC[C@H](c1ccc(O)cc1)[C@@H](CC)c1ccc(O)cc1 [hexestrol] | significant reduction | significant reduction | significant reduction | significant decrease | significant decrease | increase of serum glucose concentration upon an oral dose of glucose (OGTT) ([4]; in comparison to controls): increases to a lesser amount; time at which serum glucose returns back to baseline (OGTT) ([4]; post-dose): ≤ 90 min; body weight reduction from controls ([2]; feed treatment group): 31.7±4.5%; body weight reduction from controls ([2]; water treatment group): 30.8±9.7%; fat tissue mass (NMR body composition analysis) ([2]; water treated mice): significant decrease; serum glucose concentration upon injection of the glucose solution (IPGTT) ([5]; 1 g glucose/kg intraperitoneal, up to 90 minutes post-injection): remains static; starting serum glucose concentration (IPGTT) ([5]; pre-injection, in comparison to controls): significantly lower; reduction of body weight accumulation from control mice ([3]; 8 weeks, hexestrol 2 mg/kg/day in drinking water): 35.0±11.3%
7 | CCN(CC)CCOc1ccc(C(=C(Cl)c2ccccc2)c2ccccc2)cc1 [clomiphene] | – | significant reduction | significant reduction | significant decrease | significant decrease | change in body weight ([6]; 8 weeks, clomiphene 5 mg/kg/day in drinking water): significant; fat tissue mass (NMR body composition analysis) ([6]; after 8 weeks, in comparison to control mice): reduction in fat tissue mass
8 | CC/C(=C(/CC)c1ccc(O)cc1)c1ccc(O)cc1 [diethylstilbestrol] | – | – | – | significant decrease | – | –
